Measurements as given in US8592181B2, “Brazzein variant having higher sweetness and method for preparing multi-variant” (Chung-Ang University Industry-Academy Cooperation Foundation, priority 2009, dated 2013).
Where no end group is shown, it is not given here.

Columns and labels:
sweetness = details: cited from earlier work; for Sweetness relative to sugar (sucrose): related art
[1] = cited from earlier work; for Thermal stability: related art
human sense of taste = assay: Sweetness measured by human sense of taste (20 trained subjects, minimum concentration at which sweetness is first sensed); type: in vivo; details: for Minimum stimulation level in which one senses sweetness for first time / Multiples of increased sweetness to minor-type brazzein: primary brazzein variants; for Minimum stimulation level in which one senses sweetness for first time: 20 trained subjects; for Sweetness ratios of sucrose (1 g/100 ml) to primary brazzein variants (minor-type brazzein: 2000): relative to 1 g/100 ml sucrose threshold; for Multiples of increased sweetness to minor-type brazzein: relative to minor-type brazzein
Protocol: Since the recombinant brazzein according to the present invention is not a sucrose-based compound having a cyclic ring, the sweetness of the recombinant brazzein was not measured using a saccharometer. Therefore, the activity of the recombinant brazzein was measured using the human sense of taste. Sugar content measurement was performed on 20 subjects who were trained to feel substantially the same minimum concentration of sucrose in which they could sense sweetness using a sucrose solution. That is, a concentration of each brazzein variant in which the subjects could sense sweetness for the first time was measured. Also, a sweetness ratio of the sucrose solution to the wild-type brazzein was 1 g/100 ml, which was a minimum stimulation level in which the subjects could sense sweetness. Also, a sweetness ratio of the minor-type brazzein protein to the wild-type brazzein was 500 μg/100 ml, which was a minimum stimulation level in which the subjects could sense sweetness. Therefore, the sweetness was calculated using the sweetness ratios (That is, 1/0.0005=2000 for the minor-type brazzein).
Also, the brazzein multi-variants were measured for activity (sweetness) in the same manner as in Example 3-1.

[2] = Thermal stability: heated at 80° C. for 4 hours in 50 mM Tris-HCl (pH 8.0), sweetness change level measured by the 20 subjects; type: physicochemical; details: primary variants
Protocol: On the basis of the results measured in Example 3-1, 100 mg of each of the brazzein variants having high sweetness, that is, brazzein(H30K) set forth in SEQ ID NO: 99, brazzein(H30R) set forth in SEQ ID NO: 100, brazzein(E35D) set forth in SEQ ID NO: 109, brazzein(E40A) set forth in SEQ ID NO: 113, brazzein(E40A) set forth in SEQ ID NO: 113, brazzein(E40D) set forth in SEQ ID NO: 114, brazzein(E40K) set forth in SEQ ID NO: 115, brazzein(E40H) set forth in SEQ ID NO: 116 and brazzein(E40R) set forth in SEQ ID NO: 117, was dissolved in a 50 mM Tris-HCl (pH 8.0) solution, and heated at 80° C. for 4 hours. Based on the sweetness measured before the heat treatment of the respective primary brazzein variants, a sweetness change level of each primary brazzein variant was then measured by the 20 subjects in the same manner as in Example 3-1.
Also, the brazzein multi-variants were measured for thermal stability in the same manner as in Example 3-2. […] From the high performance liquid chromatography analysis of the quaternary variants out of the brazzein multi-variants, it was confirmed that the quaternary variants maintained their constant thermal stability in spite of the fact that the quaternary variants had different structural properties than the minor-type brazzein protein.

Row | Compound | Sweetness relative to sugar (sucrose) (sweetness) | Minimum stimulation level in which one senses sweetness for first time (human sense of taste) [μg/100 ml] | Sweetness ratios of sucrose (1 g/100 ml) to primary brazzein variants (minor-type brazzein: 2000) (human sense of taste) | Thermal stability (relative activity after heat treatment) [2] | Multiples of increased sweetness to minor-type brazzein (human sense of taste) | other results
1 | O=C1NS(=O)(=O)c2ccccc21 [saccharin] | approximately 500 times | – | – | – | – | –
2 | C=C1C[C@@]23CC[C@H]4[C@@](C)(CCC[C@@]4(C)C(=O)O[C@@H]4O[C@H](CO)[C@@H](O)[C@H](O)[C@H]4O)[C@@H]2CC[C@]1(O[C@@H]1O[C@H](CO)[C@@H](O)[C@H](O)[C@H]1O[C@@H]1O[C@H](CO)[C@@H](O)[C@H](O)[C@H]1O)C3 [stevioside] | 200 times | – | – | – | – | –
3 | Brazzein: sweetener protein extracted from the fruit of Pentadiplandra brazzeana (Baillon) (QDKCKKVYENYPVSKCQLANQCNYDCKLDKHARSGECFYDEKRNLQCICDYCEY; UniProt P56552 1-54, looked up) | – | – | – | – | – | Solubility and pH stability in water ([1]; Gao et al. 1999): very high; Thermal stability [1]: very high
4 | E40D: primary brazzein variant: Glu at position 40 of minor-type brazzein substituted with Asp (DKCKKVYENYPVSKCQLANQCNYDCKLRKHARSGECFYDDKRNLQCICDYCEY; Brazzein(E40D)) [Brazzein E40D] | – | 150 | 6,600 | maintained their thermal stabilities | – | –
5 | E40K: primary brazzein variant: Glu at position 40 of minor-type brazzein substituted with Lys (DKCKKVYENYPVSKCQLANQCNYDCKLRKHARSGECFYDKKRNLQCICDYCEY; Brazzein(E40K)) [Brazzein E40K] | – | 150 | 6,600 | maintained their thermal stabilities | 3.3 | –
6 | E40R: primary brazzein variant: Glu at position 40 of minor-type brazzein substituted with Arg (DKCKKVYENYPVSKCQLANQCNYDCKLRKHARSGECFYDRKRNLQCICDYCEY; Brazzein(E40R)) [Brazzein E40R] | – | 250 | 4,000 | maintained their thermal stabilities | 2 | –
7 | H30R: primary brazzein variant: His at position 30 of minor-type brazzein substituted with Arg (DKCKKVYENYPVSKCQLANQCNYDCKLRKRARSGECFYDEKRNLQCICDYCEY; Brazzein(H30R)) [Brazzein H30R] | – | 150 | 6,600 | maintained their thermal stabilities | 3.3 | –
8 | Monellin | 3,000 times | – | – | – | – | Thermal stability [1]: low
9 | minor-type brazzein: wild-type minor type of brazzein, 53 amino acid residues without pyroglutamic acid at the amino-terminal region (DKCKKVYENYPVSKCQLANQCNYDCKLRKHARSGECFYDEKRNLQCICDYCEY; ends and bridges not checked; cysteine pairing not given here) [reference compound] | – | 500 | 2000 | – | – | Sweetness relative to the major type of brazzein (sweetness; Assadi-Porter et al. 2000): approximately twice
